Measurements published in ChEMBL document CHEMBL2311326, “Synthesis and evaluation of novel sulfenamides as novel anti Methicillin-resistant Staphylococcus aureus agents” (2013).
Values after ≈ are worked out from the molar mass of the structure shown.

Legend:
Type in all cases: functional
[1] = test system: Staphylococcus aureus; assay: Antimicrobial activity against methicillin-resistant Staphylococcus aureus isolate Chaoyang
[2] = test system: Staphylococcus aureus; assay: Antimicrobial activity against Staphylococcus aureus ATCC 6538
[3] = test system: Staphylococcus aureus; assay: Antimicrobial activity against methicillin-resistant Staphylococcus aureus isolate 309-7
[4] = test system: Staphylococcus aureus; assay: Antimicrobial activity against methicillin-sensitive Staphylococcus aureus isolate 309-1
[5] = test system: Staphylococcus aureus; assay: Antimicrobial activity against methicillin-resistant Staphylococcus aureus isolate 309-8
[6] = test system: Staphylococcus aureus; assay: Antimicrobial activity against methicillin-resistant Staphylococcus aureus isolate 309-4
[7] = test system: Staphylococcus aureus; assay: Antimicrobial activity against methicillin-resistant Staphylococcus aureus isolate 6-42
[8] = test system: Pseudomonas aeruginosa; assay: Antimicrobial activity against Pseudomonas aeruginosa PAO1
[9] = test system: Staphylococcus aureus; assay: Antimicrobial activity against methicillin-resistant Staphylococcus aureus
[10] = test system: Bacillus subtilis; assay: Antimicrobial activity against Bacillus subtilis ATCC 6633

Row | SMILES | MBC [1] [µg/mL] | MIC [1] [µg/mL] | MBC [2] [µg/mL] | MIC [2] [µg/mL] | MBC [3] [µg/mL] | MIC [3] [µg/mL] | MBC [4] [µg/mL] | MIC [4] [µg/mL] | MBC [5] [µg/mL] | MIC [5] [µg/mL] | MBC [6] [µg/mL] | MIC [6] [µg/mL] | MBC [7] [µg/mL] | MIC [7] [µg/mL] | MIC [8] [µg/mL] | MIC [9] [µg/mL] | MIC [10] [µg/mL]
1 | O=[N+]([O-])c1ccc(S)cc1 | > 100 | 1.56 (≈ 10.1 µM) | > 100 | 3.13 (≈ 20.2 µM) | > 100 | 1.56 (≈ 10.1 µM) | > 100 | 1.56 (≈ 10.1 µM) | > 100 | 1.56 (≈ 10.1 µM) | > 100 | 1.56 (≈ 10.1 µM) | > 100 | 1.56 (≈ 10.1 µM) | – | – | –
2 | COC(=O)CC[C@H](N)C(=O)OC | > 100 | > 100 | > 100 | > 100 | > 100 | > 100 | > 100 | > 100 | > 100 | > 100 | > 100 | > 100 | > 100 | > 100 | – | – | –
3 | CCOC(=O)c1ccccc1SN1C(=O)C(=O)c2cc(Br)cc(Br)c21 | – | – | – | – | – | – | – | – | – | – | – | – | – | – | > 100 | 25 (≈ 51.5 µM) | > 100
4 | COC(=O)[C@H](Cc1c[nH]c2ccccc12)NSc1ccccc1[N+](=O)[O-] | > 100 | 3.13 (≈ 8.43 µM) | > 100 | 6.25 (≈ 16.8 µM) | > 100 | 12.5 (≈ 33.7 µM) | > 100 | 25 (≈ 67.3 µM) | > 100 | 25 (≈ 67.3 µM) | > 100 | 25 (≈ 67.3 µM) | > 100 | 3.13 (≈ 8.43 µM) | > 100 | 3.13 (≈ 8.43 µM) | 12.5 (≈ 33.7 µM)
5 | CCOC(=O)[C@H](Cc1c[nH]c2ccccc12)NSc1ccccc1[N+](=O)[O-] | > 100 | 1.56 (≈ 4.05 µM) | > 100 | 6.25 (≈ 16.2 µM) | > 100 | 6.25 (≈ 16.2 µM) | > 100 | 12.5 (≈ 32.4 µM) | > 100 | 6.25 (≈ 16.2 µM) | > 100 | 12.5 (≈ 32.4 µM) | > 100 | 1.56 (≈ 4.05 µM) | > 100 | 1.56 (≈ 4.05 µM) | 6.25 (≈ 16.2 µM)
6 | CC(C)OC(=O)[C@H](Cc1c[nH]c2ccccc12)NSc1ccccc1[N+](=O)[O-] | > 100 | 3.13 (≈ 7.84 µM) | > 100 | 6.25 (≈ 15.6 µM) | > 100 | 6.25 (≈ 15.6 µM) | > 100 | 25 (≈ 62.6 µM) | > 100 | 6.25 (≈ 15.6 µM) | > 100 | 25 (≈ 62.6 µM) | > 100 | 3.13 (≈ 7.84 µM) | > 100 | 3.13 (≈ 7.84 µM) | 12.5 (≈ 31.3 µM)
7 | COC(=O)[C@H](Cc1c[nH]c2ccccc12)NSc1ccccc1 | – | – | – | – | – | – | – | – | – | – | – | – | – | – | > 100 | 50 (≈ 153 µM) | 25 (≈ 76.6 µM)
8 | CCOC(=O)[C@H](Cc1c[nH]c2ccccc12)NSc1ccccc1 | – | – | – | – | – | – | – | – | – | – | – | – | – | – | > 100 | 25 (≈ 73.4 µM) | 25 (≈ 73.4 µM)
9 | CCOC(=O)[C@H](Cc1c[nH]c2ccccc12)NSc1ccc(C)cc1 | – | – | – | – | – | – | – | – | – | – | – | – | – | – | > 100 | > 100 | 25 (≈ 70.5 µM)
10 | Cc1ccc(SN[C@@H](Cc2c[nH]c3ccccc23)C(=O)OC(C)C)cc1 | – | – | – | – | – | – | – | – | – | – | – | – | – | – | > 100 | > 100 | 25 (≈ 67.8 µM)
11 | COC(=O)[C@H](Cc1c[nH]c2ccccc12)NSc1ccc([N+](=O)[O-])cc1 | – | – | – | – | – | – | – | – | – | – | – | – | – | – | > 100 | > 100 | 25 (≈ 67.3 µM)
12 | COC(=O)[C@H](Cc1c[nH]c2ccccc12)NSc1ccc([N+](=O)[O-])cc1[N+](=O)[O-] | – | – | – | – | – | – | – | – | – | – | – | – | – | – | > 100 | > 100 | 25 (≈ 60 µM)
13 | CCOC(=O)[C@H](Cc1c[nH]c2ccccc12)NSc1ccc([N+](=O)[O-])cc1[N+](=O)[O-] | – | – | – | – | – | – | – | – | – | – | – | – | – | – | > 100 | > 100 | 25 (≈ 58.1 µM)
14 | COC(=O)CC[C@H](NSc1ccccc1[N+](=O)[O-])C(=O)OC | – | – | – | – | – | – | – | – | – | – | – | – | – | – | > 100 | 12.5 (≈ 38.1 µM) | 25 (≈ 76.1 µM)
15 | CCOC(=O)CC[C@H](NSc1ccccc1[N+](=O)[O-])C(=O)OCC | – | – | – | – | – | – | – | – | – | – | – | – | – | – | > 100 | 25 (≈ 70.1 µM) | 25 (≈ 70.1 µM)
16 | COC(=O)CC[C@H](NSc1ccc([N+](=O)[O-])cc1)C(=O)OC | > 100 | 1.56 (≈ 4.75 µM) | > 100 | 6.25 (≈ 19 µM) | > 100 | 3.13 (≈ 9.53 µM) | > 100 | 6.25 (≈ 19 µM) | > 100 | 3.13 (≈ 9.53 µM) | > 100 | 6.25 (≈ 19 µM) | > 100 | 1.56 (≈ 4.75 µM) | > 100 | 1.56 (≈ 4.75 µM) | 3.13 (≈ 9.53 µM)
17 | COC(=O)CC[C@H](NSc1ccc([N+](=O)[O-])cc1[N+](=O)[O-])C(=O)OC | – | – | – | – | – | – | – | – | – | – | – | – | – | – | > 100 | > 100 | 50 (≈ 134 µM)

Row | SMILES | MBC [1] [µg/mL] | MIC [1] [µg/mL] | MBC [2] [µg/mL] | MIC [2] [µg/mL] | MBC [3] [µg/mL] | MIC [3] [µg/mL] | MBC [4] [µg/mL] | MIC [4] [µg/mL] | MBC [5] [µg/mL] | MIC [5] [µg/mL] | MBC [6] [µg/mL] | MIC [6] [µg/mL] | MBC [7] [µg/mL] | MIC [7] [µg/mL] | MIC [8] [µg/mL] | MIC [9] [µg/mL] | MIC [10] [µg/mL]
18 | CCOC(=O)CC[C@H](NSc1ccc([N+](=O)[O-])cc1[N+](=O)[O-])C(=O)OCC | – | – | – | – | – | – | – | – | – | – | – | – | – | – | > 100 | > 100 | 50 (≈ 125 µM)
19 | CC(C)OC(=O)CC[C@H](NSc1ccc([N+](=O)[O-])cc1[N+](=O)[O-])C(=O)OC(C)C | – | – | – | – | – | – | – | – | – | – | – | – | – | – | > 100 | > 100 | 25 (≈ 58.2 µM)
20 | O=C1C(=O)N(Sc2ccccc2[N+](=O)[O-])c2ccccc21 | – | – | – | – | – | – | – | – | – | – | – | – | – | – | > 100 | 25 (≈ 83.3 µM) | > 100
21 | O=C1C(=O)N(Sc2ccccc2)c2ccccc21 | – | – | – | – | – | – | – | – | – | – | – | – | – | – | > 100 | 50 (≈ 196 µM) | 25 (≈ 97.9 µM)
22 | Cc1ccc(SN2C(=O)C(=O)c3ccccc32)cc1 | – | – | – | – | – | – | – | – | – | – | – | – | – | – | > 100 | > 100 | > 100
23 | COC(=O)c1ccccc1SN1C(=O)C(=O)c2ccccc21 | – | – | – | – | – | – | – | – | – | – | – | – | – | – | > 100 | 50 (≈ 160 µM) | > 100
24 | CCOC(=O)c1ccccc1SN1C(=O)C(=O)c2ccccc21 | – | – | – | – | – | – | – | – | – | – | – | – | – | – | > 100 | 12.5 (≈ 38.2 µM) | > 100
25 | O=C1C(=O)N(Sc2ccc([N+](=O)[O-])cc2[N+](=O)[O-])c2ccccc21 | – | – | – | – | – | – | – | – | – | – | – | – | – | – | > 100 | > 100 | > 100
26 | O=C1C(=O)N(Sc2ccccc2[N+](=O)[O-])c2c(Cl)cccc21 | > 100 | 6.25 (≈ 18.7 µM) | > 100 | 12.5 (≈ 37.3 µM) | > 100 | 6.25 (≈ 18.7 µM) | > 100 | 12.5 (≈ 37.3 µM) | > 100 | 12.5 (≈ 37.3 µM) | > 100 | 12.5 (≈ 37.3 µM) | > 100 | 6.25 (≈ 18.7 µM) | > 100 | 6.25 (≈ 18.7 µM) | > 100
27 | COC(=O)c1ccccc1SN1C(=O)C(=O)c2cccc(Cl)c21 | – | – | – | – | – | – | – | – | – | – | – | – | – | – | > 100 | 12.5 (≈ 35.9 µM) | > 100
28 | CCOC(=O)c1ccccc1SN1C(=O)C(=O)c2cccc(Cl)c21 | – | – | – | – | – | – | – | – | – | – | – | – | – | – | > 100 | > 100 | > 100
29 | O=C1C(=O)N(Sc2ccccc2[N+](=O)[O-])c2c(Br)cccc21 | – | – | – | – | – | – | – | – | – | – | – | – | – | – | > 100 | 12.5 (≈ 33 µM) | > 100
30 | CCOC(=O)c1ccccc1SN1C(=O)C(=O)c2cccc(Br)c21 | – | – | – | – | – | – | – | – | – | – | – | – | – | – | > 100 | > 100 | > 100
31 | O=C1C(=O)N(Sc2ccccc2[N+](=O)[O-])c2c(Br)cc(Br)cc21 | – | – | – | – | – | – | – | – | – | – | – | – | – | – | > 100 | 25 (≈ 54.6 µM) | > 100
32 | CCOC(=O)[C@@H](N)Cc1c[nH]c2ccccc12 | > 100 | > 100 | > 100 | > 100 | > 100 | > 100 | > 100 | > 100 | > 100 | > 100 | > 100 | > 100 | > 100 | > 100 | – | – | –
33 | CN[C@H](CC(C)C)C(=O)N[C@H]1C(=O)N[C@@H](CC(N)=O)C(=O)N[C@H]2C(=O)N[C@H]3C(=O)N[C@H](C(=O)N[C@H](C(=O)O)c4cc(O)cc(O)c4-c4cc3ccc4O)[C@H](O)c3ccc(c(Cl)c3)Oc3cc2cc(c3O[C@@H]2O[C@H](CO)[C@@H](O)[C@H](O)[C@H]2O[C@H]2C[C@](C)(N)[C@H](O)[C@H](C)O2)Oc2ccc(cc2Cl)[C@H]1O [VANCOMYCIN] | 1 (≈ 0.69 µM) | – | 2 (≈ 1.38 µM) | – | 1 (≈ 0.69 µM) | – | 1 (≈ 0.69 µM) | – | 1 (≈ 0.69 µM) | – | 1 (≈ 0.69 µM) | – | 1 (≈ 0.69 µM) | – | > 100 | – | 0.5 (≈ 0.345 µM)
